The test system of data set [1] is MIA PaCa-2 cells. Put plainly: In vitro anti-proliferative activity in combination with gemcitabine against MIA PaCa-2 cells. It is filed as cell-based. The method, then: MIA PaCa-2 cells were seeded on a 384-well plate at 3000 cells/well, and 20 nM gemcitabine was added. After overnight adherence culture, DMSO or the compounds serially diluted 1:5 from 1000 nM were added. The viability was assessed 72 h after dosing by measuring the intracellular ATP content. The inhibition percentage of viable cells by the compounds was calculated by comparing with the DMSO group, and the IC50 value was calculated.

The subject of data set [2] is MIA PaCa-2 cells. In words: In vitro anti-proliferative activity against MIA PaCa-2 cells (compound alone). The note with it: intracellular ATP content. Format: cell-based. The procedure:
MIA PaCa-2 cells were seeded on a 384-well plate at 3000 cells/well. After overnight adherence culture, DMSO or the compounds serially diluted 1:5 from 10 μM were added. The viability was assessed 72 h after dosing by measuring the intracellular ATP content. The inhibition percentage of viable cells by the compounds was calculated by comparing with the DMSO group, and the IC50 value was calculated.

For a further data set, the target named is recombinant protein MYT1 (Homo sapiens (Human), UniProt Q99640). Put plainly: In vitro assay for inhibiting MYT1 kinase activity (ADP-GLO). The note with it: 10 μM ATP, read-out: Inhibitory activity against recombinant protein MYT1 IC50. Format: biochemical. The method, then:
Recombinant MYT1 protein and the compounds were pre-incubated at room temperature for 15 min, and 10 μM ATP was then added to start the reaction. The mixture was incubated at room temperature for another 60 min, and the ADP-GLO reagent from Promega was then added. The resulting mixture was incubated in the dark for 40 min, a detection solution was then added, and the mixture was incubated for another 45-60 min. The chemiluminescence was determined using ENVISION. The inhibition rate and IC50 were calculated compared to the DMSO group.

The subject of data set [3] is P-glycoprotein (P-gp, MDR1). Put plainly: in vitro. The following applies: dog; for Papp A→B / Papp B→A: 5 μM. The method, then: (§1) In vitro passive permeability or the ability to serve as a P-glycoprotein (P-gp) transport substrate was tested using MDCK cells (MDCK wild type) or MDCK cells stably transduced with MDRI (MDCK-MDRI), respectively. The permeability experiment was performed in duplicate in a transwell system at a single concentration (5 μM). The cells were incubated for […] Apical-to-basolateral (A to B, A-B) transport and basolateral-to-apical (B to A, B-A) transport of the corresponding compound were determined, and the permeation rate (apparent permeability) (Papp×10^−6 cm/sec) and efflux ratio (Papp (B−A)/Papp (A−B)) of the test compound were calculated.

A short description of data set [4]: In vitro permeability experiment, MDCK wild type cells. The following applies: dog. The procedure: as §1
[5] abbreviates: read-out: Anti-proliferative activity against MIA PaCa-2 cells (20 nM gemcitabine) IC50, with 20 nM gemcitabine, 72 h, intracellular ATP content.
Setting [6] is: Homo sapiens, MIA PaCa-2, 72 h, read-out: Anti-proliferative activity against MIA PaCa-2 cells (20 nM gemcitabine) IC50, with 20 nM gemcitabine, 72 h, intracellular ATP content.

recombinant protein MYT1, sequence (Q99640 whole entry): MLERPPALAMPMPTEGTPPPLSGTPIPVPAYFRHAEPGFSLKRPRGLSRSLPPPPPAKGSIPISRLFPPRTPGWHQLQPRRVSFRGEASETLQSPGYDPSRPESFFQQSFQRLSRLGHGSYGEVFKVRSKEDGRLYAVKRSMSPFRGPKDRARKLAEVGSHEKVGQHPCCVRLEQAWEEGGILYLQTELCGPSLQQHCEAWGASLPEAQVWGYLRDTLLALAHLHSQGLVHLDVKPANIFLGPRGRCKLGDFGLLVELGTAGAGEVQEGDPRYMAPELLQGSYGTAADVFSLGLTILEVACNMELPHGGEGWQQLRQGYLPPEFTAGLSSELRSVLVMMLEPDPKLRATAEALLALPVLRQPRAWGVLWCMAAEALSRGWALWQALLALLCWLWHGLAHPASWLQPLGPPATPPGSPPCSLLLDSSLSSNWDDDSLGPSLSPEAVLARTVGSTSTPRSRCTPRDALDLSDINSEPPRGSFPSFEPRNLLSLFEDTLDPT

With `Cc1cc2c(C(N)=O)c(N)n(-c3c(C)c(O)cc4c3CCC4)c2nc1C` (atropisomer, axis not shown) [Compound 117], the IC50 in the data set with MIA PaCa-2 cells [1] (setting [5]) is above 1000 nM.

Regarding `Cc1cc2c(C(N)=O)c(N)n(-c3c(C)c(O)cc(F)c3C)c2nc1C` (single isomer, unassigned) [Compound 3], the IC50 in the data set on MIA PaCa-2 cells [2] (72 h) was above 10000 nM; in the data set with MIA PaCa-2 cells [1] (setting [5]) it was 1230 nM; at recombinant protein MYT1, at most 200 nM.

Consider `Cc1ccc(O)c(C)c1-n1c(N)c(C(N)=O)c2cc3c(nc21)COC3` [Compound 17], for which the IC50 in the data set on MIA PaCa-2 cells [2] (72 h) is above 10000 nM; with MIA PaCa-2 cells [1] (setting [5]) it was above 1000 nM; on recombinant protein MYT1 it was at most 200 nM.

Regarding `Cc1cc2c(C(N)=O)c(N)n(-c3c(C)ccc(O)c3C)c2nc1C#N` [Compound 12], the half-maximal inhibitory concentration (IC50) is 228 nM in the data set on MIA PaCa-2 cells [1] (setting [6]) and at most 200 nM at recombinant protein MYT1.

With `Cc1ccc(O)c(C)c1-n1c(N)c(C(N)=O)c2cc(C#N)c(C)nc21` [Compound 10], the IC50 was 4240 nM in the data set on MIA PaCa-2 cells [2] (72 h), 45 nM in the data set with MIA PaCa-2 cells [1] (setting [5]) and at most 200 nM on recombinant protein MYT1.

In the case of `Cc1cc2c(C(N)=O)c(N)n(-c3c(C)cc(F)c(O)c3C)c2nc1C` (single isomer, unassigned) [Compound 6], the IC50 in the data set with MIA PaCa-2 cells [2] (Homo sapiens, MIA PaCa-2, 72 h) is above 10000 nM; in the data set with MIA PaCa-2 cells [1] (setting [5]), 165 nM; on recombinant protein MYT1 it was at most 200 nM.

Regarding `Cc1cc2c(C(N)=O)c(N)n(-c3c(C)c(O)cc4c3CCC4)c2nc1C` [Compound 116], the IC50 in the data set on MIA PaCa-2 cells [1] (setting [6]) was above 1000 nM.

Turning to `Cc1cc2c(C(N)=O)c(N)n(-c3c(C)cc4cc[nH]c4c3C)c2nc1C` [Compound 153], the IC50 in the data set with MIA PaCa-2 cells [1] (setting [6]) was above 1000 nM; on recombinant protein MYT1, at most 200 nM.

Regarding `COCCc1ccc(OCC(O)CNC(C)C)cc1` (stereo not drawn) [Metoprolol, metoprolol], the apparent permeability from apical to basolateral (Papp A→B) in data set [3] (MDCK-MDR1, Papp A-B Mean, MDCK-MDR1, A-B, mean) turned out to be 37 ×10⁻⁶ cm/s; in data set [3] (MDCK-MDR1, Papp A-B Sample - 01, MDCK-MDR1, A-B, replicate 01), 37.6 ×10⁻⁶ cm/s; in data set [3] (MDCK-MDR1, Papp A-B Sample - 02, MDCK-MDR1, A-B, replicate 02), 36.3 ×10⁻⁶ cm/s. The Papp B→A in data set [3] (MDCK-MDR1, Papp B-A Mean, MDCK-MDR1, B-A, mean) is 20.1 ×10⁻⁶ cm/s; in data set [3] (MDCK-MDR1, Papp B-A Sample - 01, MDCK-MDR1, B-A, replicate 01) it was 20.1 ×10⁻⁶ cm/s; in data set [3] (MDCK-MDR1, Papp B-A Sample - 02, MDCK-MDR1, B-A, replicate 02) it was 20.2 ×10⁻⁶ cm/s. In addition, the Papp A→B at 90 min, 5 µM in data set [4] (Papp A-B Mean, MDCK-Wild type, A-B, 5 μM, mean) was found to be 24.3 ×10⁻⁶ cm/s; in data set [4] (Papp A-B Sample - 01, MDCK-Wild type, A-B, 5 μM, replicate 01), 26.5 ×10⁻⁶ cm/s; in data set [4] (Papp A-B Sample - 02, MDCK-Wild type, A-B, 5 μM, replicate 02), 22.2 ×10⁻⁶ cm/s. In addition, the apparent permeability from basolateral to apical (Papp B→A) at 90 min, 5 µM in data set [4] (Papp B-A Mean, MDCK-Wild type, B-A, 5 μM, mean) stood at 21.3 ×10⁻⁶ cm/s; in data set [4] (Papp B-A Sample - 01, MDCK-Wild type, B-A, 5 μM, replicate 01) it was 18.6 ×10⁻⁶ cm/s; in data set [4] (Papp B-A Sample - 02, MDCK-Wild type, B-A, 5 μM, replicate 02), 24 ×10⁻⁶ cm/s.

For the compound `Cc1cc2c(C(N)=O)c(N)n(-c3c(C)cc4c(c3C)NCC4)c2nc1C` [Compound 150], in the data set on MIA PaCa-2 cells [1] (setting [6]), the half-inhibitory concentration (IC50) was above 1000 nM.

For the compound `Cc1ccc(O)c(C)c1-n1c(N)c(C(N)=O)c2cc3c(nc21)COC3` [Compound 16], the IC50 in the data set on MIA PaCa-2 cells [2] (Homo sapiens, MIA PaCa-2, 72 h) was above 10000 nM; in the data set on MIA PaCa-2 cells [1] (setting [5]), 101 nM; at recombinant protein MYT1, at most 200 nM.

Regarding `Cc1ccc(O)c(C)c1-n1c(N)c(C(N)=O)c2cc3c(nc21)CCN(C)C3` (atropisomer, axis not shown) [Compound 98], the 50% inhibitory concentration (IC50) in the data set with MIA PaCa-2 cells [2] (72 h) was above 10000 nM; with MIA PaCa-2 cells [1] (setting [5]), above 1000 nM; at recombinant protein MYT1, at most 200 nM.

For the compound `C[C@H]1O[C@@H](O[C@H]2[C@@H](O)C[C@H](O[C@H]3[C@@H](O)C[C@H](O[C@H]4CC[C@@]5(C)[C@H](CC[C@@H]6[C@@H]5C[C@@H](O)[C@]5(C)[C@@H](C7=CC(=O)OC7)CC[C@]65O)C4)O[C@@H]3C)O[C@@H]2C)C[C@H](O)[C@@H]1O` [Digoxin], the efflux ratio at 90 min, 5 μM in data set [3] (MDCK-MDR1) was 21.4; in data set [4] (MDCK), 2.69. The apical-to-basolateral permeability (Papp A→B) at 90 min, 5 µM in data set [3] (MDCK-MDR1, Papp A-B Mean) is 0.96 ×10⁻⁶ cm/s; in data set [3] (MDCK-MDR1, Papp A-B Sample - 01) it was 0.96 ×10⁻⁶ cm/s; in data set [3] (MDCK-MDR1, Papp A-B Sample - 02), 0.96 ×10⁻⁶ cm/s; in data set [4] (MDCK, Papp A-B Mean) it was 1.79 ×10⁻⁶ cm/s; in data set [4] (MDCK, Papp A-B Sample - 01) it was 1.9 ×10⁻⁶ cm/s; in data set [4] (MDCK, Papp A-B Sample - 02) it was 1.68 ×10⁻⁶ cm/s. Moreover, the Papp B→A at 90 min, 5 µM was found to be 20.6 ×10⁻⁶ cm/s in data set [3] (MDCK-MDR1, Papp B-A Mean); 17.7 ×10⁻⁶ cm/s in data set [3] (MDCK-MDR1, Papp B-A Sample - 01); 23.5 ×10⁻⁶ cm/s in data set [3] (MDCK-MDR1, Papp B-A Sample - 02); 4.8 ×10⁻⁶ cm/s in data set [4] (MDCK, Papp B-A Mean); 4.64 ×10⁻⁶ cm/s in data set [4] (MDCK, Papp B-A Sample - 01); 4.96 ×10⁻⁶ cm/s in data set [4] (MDCK, Papp B-A Sample - 02).

On to `Cc1ccc(O)c(C)c1-n1c(N)c(C(N)=O)c2cc3c(nc21)CCN(C)C3` [Compound 96], for which the IC50 at recombinant protein MYT1 is at most 200 nM.

On to `Cc1ccc(O)c(C)c1-n1c(N)c(C(N)=O)c2cc3c(nc21)CCN3C` [Compound 87], for which the half-inhibitory concentration (IC50) on recombinant protein MYT1 was at most 200 nM.

On to `Cc1ccc(O)c(C)c1-n1c(N)c(C(N)=O)c2cc3c(nc21)N(C)CC3` [Compound 90], for which the concentration for half-maximal inhibition (IC50) at recombinant protein MYT1 is at most 200 nM.

With `Cc1ccc(O)c(C)c1-n1c(N)c(C(N)=O)c2cc3nccnc3nc21` [Compound 53], the 50% inhibitory concentration (IC50) at recombinant protein MYT1 is at most 200 nM.

As to `Cc1cc2c(C(N)=O)c(N)n(-c3c(C)cc4c(c3C)NCC4)c2nc1C` [Compound 149], at recombinant protein MYT1, the IC50 is at most 200 nM.

For `Cc1ccc(O)c(C(F)(F)F)c1-n1c(N)c(C(N)=O)c2cc(C#N)c(C)nc21` [Compound 181], the concentration for half-maximal inhibition (IC50) on recombinant protein MYT1 is at most 200 nM.

The IC50 is the concentration at which inhibition is half-maximal. As a reminder, the Papp A→B is the apparent permeability from the apical to the basolateral side of a cell layer. A word on the Papp B→A: it is how fast a substance crosses the layer from the basolateral side. As a reminder, the efflux ratio is a quotient of directional permeabilities that is used to spot active efflux.

Values taken from patent US20260001879A1, “COMPOUNDS AS MYT1 INHIBITORS” (WIGEN BIOMMEDICINE TECHNOLOGY (SHANGHAI) CO., LTD., priority 2022, published 2026).
